The test system of series [1] is ES-cell derived cardiomyocytes. The experiment in a line: Beating frequency of ES cell-derived cardiomyocytes (contractions counted manually during 15 sec). It counts as cell-based, mouse. Conditions: cardiomyocytes 25 days after start of differentiation. The procedure:
Gated cardiomyocytes where cultivated in 6 cm tissue culture dishes. Fresh medium was supplemented with the test compound in concentrations ranging from 0.01-10 μM. For heat shock treatment the cells where incubated at 42° C. for 30 min. Mock treated cells served as control. Effects on the cardiomyocyte beating rate where recorded by manually counting the number of contractions during 15 sec. Beating rates have been recorded before addition of substances and 15 min and 4h after addition. After 4h of incubation the cells where washed with PBS, collected in reporter lysis buffer (RLB, Promega) and stored at −80° C.
Effects of noradrenaline are mediated via alpha and beta-adrenergic receptors, while isoproterenol effects are mediated specific via β-adrenergic receptors. Since β1 receptors play a pivotal role in mediating the beating rate, we analyzed changes in beating frequency of cardiomyocytes as a first indication of a response towards the tested compounds. The beating rate of a individual cluster per plate has been recorded before, 15 min after application of the stimulus and after 4h incubation. FIG. 3 summarizes the data of such an analysis using cardiomyocytes 25 days after start of differentiation. […] Due to the low starting beating frequency in some cases the x-fold increase is quite high. Nevertheless these elevated beating frequencies where still in the physiological range. […]

The test system of series [2] is CT-1 promoter. The experiment in a line: CT1-promoter luciferase reporter activity in ES cell-derived cardiomyocytes. As to conditions: 0.1 μM, incubation for 4h, corrected for total protein. It counts as cell-based, mouse. A general note: Reporter assays use an easily measured gene product as a stand-in for the process of interest.
Method: Gated cardiomyocytes where cultivated in 6 cm tissue culture dishes. Fresh medium was supplemented with the test compound in concentrations ranging from 0.01-10 μM. For heat shock treatment the cells where incubated at 42° C. for 30 min. Mock treated cells served as control. […] After 4h of incubation the cells where washed with PBS, collected in reporter lysis buffer (RLB, Promega) and stored at −80° C. The Luciferase-activity in the thawed lysates was measured by flash-light Luciferase assay (Promega). In order to quantify Luciferase-activity a serial diluted recombinant Luciferase standard was analyzed in parallel. Values for Luciferase-activity where correct for the amount of total protein in the lysates measured by BCA-assay (Pierce). The transcriptional activity of the CT1-promoter was analyzed by measurement of Luciferase activity in the cellular lysates.
The test system of series [3] is cardiomyocyte nuclei in the ventricular septum. Further details: species or system mice. As to conditions: mouse, in vivo, 7 days. The procedure: Cryosections (10 μm) were generated using standard histologic techniques. For ISEL analysis, cryosections were processed using the Oncogene Research KLENOW-FragEL DNA Fragmentation Detection Kit. Signal was developed with biotinylated nucleotides and horseradish peroxidase (HRP) conjugated streptavidin (Roche Molecular Biochemicals). Signal was generated by incubation with diaminobenzidine using standard techniques. Beta-galactosidase activity was detected in the same sections via X-GAL staining as described (Soonpaa M. H. et al. (1994) Science 264: 98-101).
Isoproterenol is a beta-adrenergic agonist that induces cardiomyocyte hypertrophy both in vitro and in vivo. Prolonged exposure to isoproterenol is cardiotoxic, inducing cardiomyocyte apoptosis via a mechanism similar to that encountered during the progression of heart failure. The MHC-1152stp mice were tested to determine if transgene expression was cardioprotective during isoproterenol infusion, and specifically to see if 1152stp expression could antagonize isoproterenol-induced cardiomyocyte apoptosis. […]
Mice with a MHC-1152stp/MHC-nLAC genotype and a (−)/MHC-nLAC genotype were culled, and at 12 weeks of age were implanted with isoproterenol-filled osmotic mini-pumps, as described in several studies from our group (Soonpaa M. H. and Field L. J. (1994) American Journal of Physiology 266 (Heart and Circulatory Physiology 35): H1439-1445; Pasumarthi K. B., Nakajima H., Nakajima H. O., Jing S., Field L. J. (2000) Circ Res. 86: 1069-1077). […] Cardiomyocyte apoptosis was then calculated simply by determining the incidence of black HRP signal over blue nuclear staining; these analyses focused on cardiomyocytes residing in the ventricular septum, where the cardiotoxic effects of isoproterenol appear to be most pronounced. […]

The mark [4] stands for this setting: MHC-nLAC transgenic ((−)/MHC-nLAC genotype).

Like-named read-outs stand apart in the source and are kept apart here.

Regarding `CN(C)CCCN1c2ccccc2CCc2ccccc21` [imipramine], the “change in beating frequency” value in series [1] (0.1 μM) was “increase in beating frequencies”. Besides, the “increase of CT1-promoter activity (Luciferase activity) compared to the untreated control” value in series [2] was “more than 2 fold”.
`CC(C)NCC(O)c1ccc(O)c(O)c1` (stereo not shown) [isoproterenol]: in series [3] ((−)/MHC-nLAC transgenic), the “% ISEL Positive” value is roughly 0.1%. Besides, in series [3] (setting [4]), the “% ISEL Positive” value amounted to 0.098% and the “ISEL Positive CM Nuclei” value was 35 of 35604.
`NC[C@H](O)c1ccc(O)c(O)c1` [noradrenaline]: the “change in beating frequency” value in series [1] (recorded before, 15 min and 4h after application, 0.01-10 μM) is “dose dependent increase”. Moreover, the “increase of CT1-promoter activity (Luciferase activity) compared to the untreated control” value in series [2] came out at 1.73 fold.

Source of the values: US20050191693A1, “Methods and cell populations for identifying and validating genomic targets, and for drug screening” (priority 2001, published 2005).
